The results in this text go back to BindingDB's records for patent US9458110 (Bristol Myers Squibb, 2016).

The assay concerns the target Rho-associated protein kinase 1 (Homo sapiens, UniProt Q13464). Nature of the assay: In Vitro Assay. To be noted: pH 7.5.

The structures appear in SMILES notation.

Rho-associated protein kinase 1, sequence (Q13464 whole entry): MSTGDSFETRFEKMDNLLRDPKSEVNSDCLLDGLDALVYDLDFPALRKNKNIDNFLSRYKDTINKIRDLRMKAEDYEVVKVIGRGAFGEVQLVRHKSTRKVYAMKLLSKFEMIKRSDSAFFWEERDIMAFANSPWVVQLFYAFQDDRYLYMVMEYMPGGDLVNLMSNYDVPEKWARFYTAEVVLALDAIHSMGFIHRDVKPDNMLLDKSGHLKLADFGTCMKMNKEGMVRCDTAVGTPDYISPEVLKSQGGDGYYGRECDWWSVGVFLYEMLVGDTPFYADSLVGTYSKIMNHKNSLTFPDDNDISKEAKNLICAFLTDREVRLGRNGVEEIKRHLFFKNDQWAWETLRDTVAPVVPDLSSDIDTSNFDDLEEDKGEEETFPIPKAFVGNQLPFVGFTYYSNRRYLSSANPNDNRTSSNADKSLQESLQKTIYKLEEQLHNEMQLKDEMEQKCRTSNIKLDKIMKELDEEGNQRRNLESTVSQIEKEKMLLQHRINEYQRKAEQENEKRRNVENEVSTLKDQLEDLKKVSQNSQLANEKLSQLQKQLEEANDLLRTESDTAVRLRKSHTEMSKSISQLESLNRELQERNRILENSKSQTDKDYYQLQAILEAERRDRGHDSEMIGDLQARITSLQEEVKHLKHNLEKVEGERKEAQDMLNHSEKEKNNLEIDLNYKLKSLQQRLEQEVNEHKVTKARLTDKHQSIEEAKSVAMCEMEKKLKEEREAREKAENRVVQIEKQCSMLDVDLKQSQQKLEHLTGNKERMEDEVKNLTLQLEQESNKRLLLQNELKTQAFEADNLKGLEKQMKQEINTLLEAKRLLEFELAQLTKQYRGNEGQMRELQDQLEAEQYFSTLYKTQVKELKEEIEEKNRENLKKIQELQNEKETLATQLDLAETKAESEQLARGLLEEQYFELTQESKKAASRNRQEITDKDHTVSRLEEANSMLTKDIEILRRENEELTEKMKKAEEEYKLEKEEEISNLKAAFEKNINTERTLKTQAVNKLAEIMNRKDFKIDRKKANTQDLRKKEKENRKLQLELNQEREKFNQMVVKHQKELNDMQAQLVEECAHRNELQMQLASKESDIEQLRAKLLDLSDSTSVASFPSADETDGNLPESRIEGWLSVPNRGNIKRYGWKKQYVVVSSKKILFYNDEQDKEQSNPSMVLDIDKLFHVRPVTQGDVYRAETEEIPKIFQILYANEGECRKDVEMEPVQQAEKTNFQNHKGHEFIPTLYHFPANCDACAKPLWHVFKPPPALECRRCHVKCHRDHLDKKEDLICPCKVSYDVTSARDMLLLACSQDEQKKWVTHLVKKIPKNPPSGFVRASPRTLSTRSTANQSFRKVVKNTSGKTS

The IC50 is the point on the concentration scale where inhibition reaches its midpoint. Lower therefore signals greater potency. Consider `CNC(=O)C[C@@H](NC(=O)c1ccc(-c2cn[nH]c2)c(C)c1)c1ccccc1` [US9458110, 252], for which the IC50 came out at 41.1 nM.
